Key:
Assay type in all cases: physicochemical
[1] = Solubility test of compound in safe solvent; details: 23° C., visual
Method: (2) Solubility Test of Compound in Safe Solvent
(§1) The solubility of the compound in PGME and PGMEA was evaluated according to the following standard using the dissolution amount in each solvent. For the measurement of the dissolution amount, the compound was precisely weighed in a test tube at 23° C.; and the target solvent was added to the compound so that a predetermined concentration of the liquid to be obtained was set; a ultrasonic wave was applied to the liquid in an ultrasonic washing machine for 30 minutes; and the state of the resulting liquid was visually evaluated.
A: 5.0% by weight≦dissolution amount
B: 3.0% by weight≦dissolution amount<5.0% by weight
C: dissolution amount<3.0% by weight

[2] = Solubility of compound in methyl ethyl ketone (MEK); details: dissolution amount in MEK at 23° C., visual
Method: (1) Solubility of Compound in Methyl Ethyl Ketone (MEK)
as §1, with “MEK” for “PGME and PGMEA”, “MEK at 23° C.” for “each solvent.”
Evaluation A: 50% by weight or more
Evaluation B: 10% by weigh or more and less than 50% by weight
Evaluation C: less than 10% by weight

[3] = Thermal decomposition temperature by DSC; details: 10° C./min to 500° C., nitrogen gas stream
Method: (3) Thermal Decomposition Temperature
The apparatus EXSTAR6000DSC (trade name) manufactured by SII NanoTechnology Inc. was used. About 5 mg of each sample was placed in a non-sealed container made of aluminum, and the temperature was raised to 500° C. at the rate of temperature rise of 10° C./min in a nitrogen gas stream (30 mL/min). The temperature corresponding to a descending peak appeared in the baseline was defined as the thermal decomposition temperature.

[4] = Glass transition temperature by DSC; details: 10° C./min to 300° C., second heating after quench, nitrogen gas stream
Method: (4) Glass Transition Temperature
The apparatus EXSTAR6000DSC (trade name) manufactured by SII NanoTechnology Inc. was used. About 5 mg of each sample was placed in a non-sealed container made of aluminum, and the temperature was raised to 300° C. at the rate of temperature rise of 10° C./min in a nitrogen gas stream (30 mL/min). After the non-sealed container made of aluminum was quenched, again the temperature was raised to 300° C. at the rate of temperature rise of 10° C./min in a nitrogen gas stream (30 mL/min), thereby performing DSC measurement. The temperature corresponding to the middle point (where the specific heat was changed into the half) of a region in which a discontinuous portion appeared in the baseline was defined as the glass transition point.

Row | SMILES | Solubility test of compound in safe solvent PGME [1] | Solubility test of compound in safe solvent PGMEA [1] | thermal decomposition temperature [3] | glass transition point [4] | solubility in MEK [2]
1 | Oc1ccc2c(C(c3c(O)ccc4cc(O)ccc34)c3cc4ccccc4c4ccccc34)c(O)ccc2c1 [BisN-8] | A (A: 5.0% by weight≦dissolution amount) | A (A: 5.0% by weight≦dissolution amount) | 255 °C | 140 °C | B (Evaluation B: 10% by weigh or more and less than 50% by weight)
2 | Oc1ccc2c(C(c3c(O)ccc4cc(O)ccc34)c3ccc4ccc5cccc6ccc3c4c56)c(O)ccc2c1 [BisN-9] | A (A: 5.0% by weight≦dissolution amount) | A (A: 5.0% by weight≦dissolution amount) | 260 °C | 140 °C | B (Evaluation B: 10% by weigh or more and less than 50% by weight)
3 | Oc1ccc2c(C3(c4c(O)ccc5cc(O)ccc45)CCCCC3)c(O)ccc2c1 [BisN-10] | A (A: 5.0% by weight≦dissolution amount) | A (A: 5.0% by weight≦dissolution amount) | 210 °C | 100 °C | B (Evaluation B: 10% by weigh or more and less than 50% by weight)
4 | Oc1ccc2c(C(c3ccc(C(c4c(O)ccc5cc(O)ccc45)c4c(O)ccc5cc(O)ccc45)cc3)c3c(O)ccc4cc(O)ccc34)c(O)ccc2c1 [BisN-12] | A (A: 5.0% by weight≦dissolution amount) | A (A: 5.0% by weight≦dissolution amount) | 245 °C | 130 °C | B (Evaluation B: 10% by weigh or more and less than 50% by weight)
5 | Oc1ccc2c(C(c3ccc(-c4ccc(C(c5c(O)ccc6cc(O)ccc56)c5c(O)ccc6cc(O)ccc56)cc4)cc3)c3c(O)ccc4cc(O)ccc34)c(O)ccc2c1 [BisN-13] | A (A: 5.0% by weight≦dissolution amount) | A (A: 5.0% by weight≦dissolution amount) | 245 °C | 130 °C | B (Evaluation B: 10% by weigh or more and less than 50% by weight)
6 | Oc1ccc2c(C(c3cc(C(c4c(O)ccc5cc(O)ccc45)c4c(O)ccc5cc(O)ccc45)cc(C(c4c(O)ccc5cc(O)ccc45)c4c(O)ccc5cc(O)ccc45)c3)c3c(O)ccc4cc(O)ccc34)c(O)ccc2c1 [BisN-14] | A (A: 5.0% by weight≦dissolution amount) | A (A: 5.0% by weight≦dissolution amount) | 245 °C | 130 °C | B (Evaluation B: 10% by weigh or more and less than 50% by weight)
7 | Oc1cc(O)c2cc1C(c1ccc(C3CCCCC3)cc1)c1cc(c(O)cc1O)C(c1ccc(C3CCCCC3)cc1)c1cc(c(O)cc1O)C(c1ccc(C3CCCCC3)cc1)c1cc(c(O)cc1O)C2c1ccc(C2CCCCC2)cc1 (stereo not shown) [CR-1, reference compound] | B (B: 3.0% by weight≦dissolution amount<5.0% by weight) | C (C: dissolution amount<3.0% by weight) | – | – | –
8 | OCCOc1ccc2c3c(ccc2c1)Oc1ccc2cc(OCCO)ccc2c1C3c1ccc(-c2ccccc2)cc1 [Example 29] | – | – | 375 °C | 132 °C | –
9 | Cc1cc(C(c2ccc3ccc(C(c4cc(C)c(O)c(C)c4C)c4cc(C)c(O)c(C)c4C)cc3c2)c2cc(C)c(O)c(C)c2C)c(C)c(C)c1O [TetP-1, reference compound] | A (A: 5.0% by weight≦dissolution amount) | A (A: 5.0% by weight≦dissolution amount) | – | – | –

Further lines, with some results ahead:

Row | Solubility test of compound in safe solvent PGME [1] | Solubility test of compound in safe solvent PGMEA [1] | thermal decomposition temperature [3] | glass transition point [4] | SMILES | solubility in MEK [2]
10 | A (A: 5.0% by weight≦dissolution amount) | A (A: 5.0% by weight≦dissolution amount) | 250 °C | 130 °C | Oc1ccc2c(C(c3ccc(-c4ccccc4)cc3)c3c(O)ccc4cc(O)ccc34)c(O)ccc2c1 [BisN-1] | B (Evaluation B: 10% by weigh or more and less than 50% by weight)
11 | A (A: 5.0% by weight≦dissolution amount) | A (A: 5.0% by weight≦dissolution amount) | 250 °C | 130 °C | Oc1ccc2ccc(O)c(C(c3ccc(-c4ccccc4)cc3)c3c(O)ccc4ccc(O)cc34)c2c1 [BisN-2] | B (Evaluation B: 10% by weigh or more and less than 50% by weight)
12 | A (A: 5.0% by weight≦dissolution amount) | A (A: 5.0% by weight≦dissolution amount) | 250 °C | 130 °C | Oc1cccc2c(O)c(C(c3ccc(-c4ccccc4)cc3)c3ccc4c(O)cccc4c3O)ccc12 [BisN-3] | B (Evaluation B: 10% by weigh or more and less than 50% by weight)
13 | A (A: 5.0% by weight≦dissolution amount) | A (A: 5.0% by weight≦dissolution amount) | 250 °C | 130 °C | Oc1ccc2c(O)cccc2c1C(c1ccc(-c2ccccc2)cc1)c1c(O)ccc2c(O)cccc12 [BisN-4] | B (Evaluation B: 10% by weigh or more and less than 50% by weight)
14 | A (A: 5.0% by weight≦dissolution amount) | A (A: 5.0% by weight≦dissolution amount) | 250 °C | 130 °C | Oc1ccc2ccc(C(c3ccc(-c4ccccc4)cc3)c3ccc4ccc(O)cc4c3O)c(O)c2c1 [BisN-5] | B (Evaluation B: 10% by weigh or more and less than 50% by weight)
15 | A (A: 5.0% by weight≦dissolution amount) | A (A: 5.0% by weight≦dissolution amount) | 250 °C | 130 °C | Oc1cc2ccccc2c(C(c2ccc(-c3ccccc3)cc2)c2c(O)c(O)cc3ccccc23)c1O [BisN-6] | B (Evaluation B: 10% by weigh or more and less than 50% by weight)
16 | A (A: 5.0% by weight≦dissolution amount) | A (A: 5.0% by weight≦dissolution amount) | 255 °C | 135 °C | Oc1ccc2c(C(c3cccc4ccccc34)c3c(O)ccc4cc(O)ccc34)c(O)ccc2c1 [BisN-7] | B (Evaluation B: 10% by weigh or more and less than 50% by weight)
17 | A (A: 5.0% by weight≦dissolution amount) | A (A: 5.0% by weight≦dissolution amount) | 250 °C | 135 °C | Oc1ccc2c(C3(c4c(O)ccc5cc(O)ccc45)c4ccccc4-c4ccccc43)c(O)ccc2c1 [BisN-11] | B (Evaluation B: 10% by weigh or more and less than 50% by weight)
18 | A (A: 5.0% by weight≦dissolution amount) | A (A: 5.0% by weight≦dissolution amount) | 410 °C | 152 °C | Oc1ccc2c3c(ccc2c1)Oc1ccc2cc(O)ccc2c1C3c1ccc(-c2ccccc2)cc1 [XBisN-1] | A (Evaluation A: 50% by weight or more)
19 | A (A: 5.0% by weight≦dissolution amount) | A (A: 5.0% by weight≦dissolution amount) | 410 °C | 152 °C | Oc1ccc2ccc3c(c2c1)C(c1ccc(-c2ccccc2)cc1)c1c(ccc2ccc(O)cc12)O3 [XBisN-2] | B (Evaluation B: 10% by weigh or more and less than 50% by weight)
20 | A (A: 5.0% by weight≦dissolution amount) | A (A: 5.0% by weight≦dissolution amount) | 410 °C | 152 °C | Oc1cccc2c3c(ccc12)C(c1ccc(-c2ccccc2)cc1)c1ccc2c(O)cccc2c1O3 [XBisN-3] | B (Evaluation B: 10% by weigh or more and less than 50% by weight)

— patent US9908831B2, “Resist composition, method for forming resist pattern, polyphenolic compound for use in the composition, and alcoholic compound that can be derived therefrom” (Mitsubishi Gas Chemical Company, Inc., priority 2011, dated 2018)
